Results reported in patent US20200222347A1, “ANTIMICROBIALS AND METHODS OF USE THEREOF” (priority 2013, published 2020).
Entries after “also recorded” stand apart in the source; their conditions may differ. Where two headings read alike, the source gives them in different places.

Columns and labels:
C difficile = experiment: Kirby-Bauer disc diffusion antimicrobial susceptibility; type: cell-based; settings: 100 mM, carrier water; 48 hours for anaerobes
S. aureus 6538 = experiment: as above; type: cell-based; settings: 100 mM, carrier water; 18-24 hours for aerobes
S. aureus 33591 (MRSA) = experiment: as above; type: cell-based, Staphylococcus aureus; settings: 100 mM, carrier water; 18-24 hours for aerobes
P. aeruginosa = experiment: as above; type: cell-based, Pseudomonas aeruginosa; settings: 100 mM, carrier water; 18-24 hours for aerobes
all bacteria tested = experiment: In vitro antimicrobial susceptibility, whole panel; type: cell-based
[1] = test system: P. aeruginosa (ACTA 9027); type: in vivo
[2] = test system: P. aeruginosa (ACTA 27853); type: in vivo; settings: for bacterial burden of P. aeruginosa in skin tissue: 25 mM topical in water
[3] = test system: Klebssilla pneumonia ATCC4352; experiment: Paper disc test with water or propylene glycol, Example 10; type: cell-based
[4] = test system: normal human skin bacterial resident flora; experiment: Human skin disinfection study, Loma Linda, Phase 1; type: in vivo
Experimental: A randomized double blinded study was performed at Loma Linda Medical School. It involved 4 phases over two years' time. The methods were as follows:
[…] […] The controls were Chloroprep (2% Chlorhexidine in 70% isopropyl alcohol) and Betadine (9.0% to 12.0% available iodine in water). Cultures were taken before application and 20 minutes after application. The initial harvest was by a surface swab. Application was by soaked sponge, without force or scrubbing. The second harvest was performed with the back edge of a sterile knife blade scraping with pressure in attempt to maximize the harvest from the deeper sebaceous glands and hair follicles. The specimens were placed in culture media. Bacteriology was performed at WuXiAppTec in Marrietta, Ga.

[5] = test system: normal human skin bacterial resident flora; experiment: Human skin disinfection study, Loma Linda, Phase IV; type: in vivo; settings: for no growth cultures results after treatment, anaerobic / no growth cultures results after treatment, Aerobic: Phase IV, two applications
Experimental: Method: The variations in materials and methods in this phase were based upon results of the previous phases. They included changes in the solution, the method of dissolving the PCA, the timing of skin application, plus using two applications to simulate the present day recommendations of surgical skin preparation.
The method placed the 20 grams of ground PCA in sterile container with volume markers. Then added 85 ml of 91% isopropyl alcohol; warm and shake. […] A repeat of warming and shaking was instituted. The container was filled to 100 ml, warm and repeated the shaking. It took perhaps 15 to 20 minutes for the ground crystals to dissolve.
An area was marked at 4 corners on the anterior axilla area of both shoulders. There was a topical reagent application. After 5 minutes a second application was made. The control group was again Chloroprep®. The experimental side was applied with manual motion and pressure on a sterile sponge soaked with the PCA solution. The subjects put hands on head for 10 minutes and then 10 minutes of moving arms around. Culture #1 was harvested with scraping at 20 minutes post 2nd application. Subjects rested their arms at side for 40 minutes which is 60 minutes after the first application and 40 minutes after culture #1. A second culture is taken with scraping. The post application cultures were taken of each shoulder skin area with scraping with back side of a sterile surgical knife blade to maximize the yield.

[6] = test system: Pseudomonas aeruginosa ATCC9027; experiment: Paper disc test with water or propylene glycol, Example 10
[7] = test system: Pseudomonas Aeruginosa ATCC 700888 biofilm; experiment: Single spray on biofilm on glass slides, time study, Example 8; settings: for log reduction: 30% PCA spray in isopropyl alcohol, vs positive control slides
[8] = test system: Staphylococcus aureus ATCC 33591 (MRSA) biofilm; experiment: as above; settings: for CFUs after spray: 30% PCA spray
[9] = 1% PCA in water, 20 minutes after application

Structure (SMILES): O=C(O)c1ccc(O)c(O)c1 [PCA, Protocatechuic acid]
- effectiveness against C. difficile (growth inhibition) (C difficile): effective
- effectiveness against S. aureus 6538 (S. aureus 6538): effective
- effectiveness against S. aureus 33591 (MRSA) (S. aureus 33591 (MRSA)): effective
- effectiveness against P. aeruginosa (P. aeruginosa): effective; also recorded: some effectiveness
- antibiotic properties (summary) (all bacteria tested): broad spectrum antibiotic
- overall effectiveness in the in vitro panel (all bacteria tested; 100 mM, carrier water, 18-24 hours for aerobes, 48 hours for anaerobes): effective against all bacteria tested
- most effective concentration for decreasing bacterial burden ([1]; of 50, 100 and 200 mM tested, 96 hours): 50 mM
- bacterial burden in the skin ([1]; topical in water, 50, 100 and 200 mM, at two hours and daily for four days, day five, none statistically significant): decreased the bacterial burden
- bacterial burden of P. aeruginosa in skin tissue ([2]; 48 and 96 hours): reduced the bacterial burden
- bacterial burden of P. aeruginosa in skin tissue ([2]; 48 hours): significantly decreased; also recorded: effective
- dose that was bactericidal on Pseudomonas aeruginosa on taped stripped rodent skin ([2]; calculated from 25 mM and applied volume): 0.00038 grams
- kill of Pseudomonas aeruginosa ([2]; in 48 hours, both reagents and dose (PCA 25, 50 mM; C3G 100, 200 mM)): 10,000 fold
- action on stripped skin wound of a rodent ([2]; topical, various calculated doses, in 48 to 96 hours): bactericidal
- inhibition of growth under the sample ([3]; PPG): I
- zone of inhibition ([3]; PPG): 3 mm
- inhibition of growth under the sample ([3]; Water): I
- zone of inhibition ([3]; Water): 2 mm
- anaerobic cultures with no growth [4, 9]: 6 of 22
- subjects with no growth on aerobic culture [4, 9]: 7 of 22
- anaerobic cultures with reduced colony growth ([4]; 1% PCA in water, of 22 cultures): 15
- aerobic cultures with reduced growth ([4]; 1% PCA in water, of 22 subjects): 10 cultures
- effectiveness as skin disinfectant, Phase 1 ([4]; 20 minutes after application): partially effective
- removal of potential pathogens from skin ([5]; Phase IV solution: 20 grams of PCA, 91% isopropyl alcohol, 5 ml of essence of peppermint oil): effective in removing potential pathogens
- no growth cultures results after treatment, anaerobic ([5]; 20 minutes): 4/12
- no growth cultures results after treatment, Aerobic ([5]; 20 minutes, PCA in 91% isopropyl alcohol and essential oil of peppermint): 12/12
- no growth cultures results after treatment, Aerobic ([5]; 60 minutes): 7/12
- no growth cultures results after treatment, anaerobic ([5]; 60 minutes): 6/12
- inhibition of growth under the sample ([6]; PPG): I
- zone of inhibition ([6]; PPG): 4 mm
- inhibition of growth under the sample ([6]; Water): I
- zone of inhibition ([6]; Water): 10 mm
- log reduction ([7]; after 30 minutes): 3.3 log
- log reduction ([7]; after 60 minutes): 2.2 log
- reduction in the number colony forming units ([7]; 30% PCA spray, after 60 minutes): 99.9%
- CFUs after spray ([8]; after 30 minutes, from 60 million CFUs): 3 million
- CFUs after spray ([8]; after 60 minutes, from 25 million): 2 million CFUs
- biofilms killed ([8]; […], 30 minutes): 90%
